Data taken from the NIST ThermoML archive (doi:10.1021/je040006u).
Numbers after ± are expanded uncertainties.

Columns and labels:
[1] = xn = mol fraction of the nth substance listed; conditions: 101.3 kPa, Liquid, Pycnometric method, x1 = 1
[2] = 101.3 kPa, Liquid, Pycnometric method

SMILES	mass density ([1]; 291.15 K) [kg/m3]	mass density ([1]; 293.15 K) [kg/m3]	mass density ([1]; 298.15 K) [kg/m3]	mass density ([1]; 303.15 K) [kg/m3]	mass density ([1]; 308.15 K) [kg/m3]	mass density ([2]; 291.15 K) [kg/m3]	mass density ([2]; 293.15 K) [kg/m3]	mass density ([2]; 298.15 K) [kg/m3]	mass density ([2]; 303.15 K) [kg/m3]	mass density ([2]; 308.15 K) [kg/m3]
COCCO [2-methoxyethan-1-ol] + CCCNCCC	966.52 ± 2.6	964.88 ± 2.6	960.29 ± 2.6	955.76 ± 2.6	951.1 ± 2.6	–	–	–	–	–
COCCO [2-methoxyethan-1-ol]	–	–	–	–	–	966.52 ± 2.6	964.88 ± 2.6	960.29 ± 2.6	955.76 ± 2.6	951.1 ± 2.6
CCCNCCC [dipropylamine]	–	–	–	–	–	738.47 ± 2	737.2 ± 2	732.56 ± 2	728.2 ± 2	723.64 ± 2
